The results in this text go back to the OPERA property sets (Mansouri et al. 2018).

Molecules are shown by their SMILES. Where a SMILES comes first, the peptide text is derived from it.

As a reminder, the logP is the decadic logarithm of the partition coefficient of the neutral form, usually between octanol and water. High values mean a more lipophilic compound, low ones a more hydrophilic compound. `COc1ccc(C(=O)NN=Cc2c(CO)ccc(C)c2O)cc1` yielded a logP of 3.34.
`O=C(Cc1c(Cl)cc(Cl)cc1Cl)Oc1coc(CO)cc1=O` registered a logP of 1.92.
In turn, `O=[N+]([O-])c1ccc(CSc2ncnc3c2ncn3C2OC(CO)C(O)C2O)cc1` (centres undefined) showed a logP of 0.54.
The compound `CC(=O)OCC1=C(C(=O)O)N2C(=O)[C@@H](NC(=O)Cc3ccccc3)[C@H]2SC1` had a logP of 0.2.
Compound `CCC(C)C(N)C(=O)NC(C(=O)O)C(C)CC` (stereo not drawn) (H-Ile-Ile-OH; configuration not given here) returned a logP of -1.82.
In the case of `CCCN(CCC)C1CCc2ccc(O)cc2C1` (centres undefined), the logP was found to be 3.75.
In the case of `CCN(CC)NC(=O)NS(=O)(=O)c1ccc(C)cc1` it was 0.47.
The same measure for `CC(C)OC(=O)C(=Cc1ccccc1)S(=O)(=O)c1ccc([N+](=O)[O-])cc1`: 3.62; for `Cc1nc2ccccc2c(=O)n1CC(=O)O`: 0.38.
The same measure for `O=[N+]([O-])c1ncn(C2OC(CO)C(O)C2O)n1` (centres undefined): -1.54.
As to `CCCC(=O)OCC1OC(n2cc(I)c(=O)[nH]c2=O)CC1O` (centres undefined), the logP was 0.88.
Compound `CC(C)CC(N)C(=O)NC(C(=O)O)C(C)C` (stereo not drawn) (H-Leu-Val-OH; configuration not given here) registered a logP of -2.05.
Regarding `CSCCC(N)C(=O)NC(Cc1c[nH]c2ccccc12)C(=O)O` (centres undefined), the logP is -1.5.
In the case of `CCC(C)C(NC(=O)C(N)CC(C)C)C(=O)NC(C(=O)NCC(=O)NC(C)C(=O)O)C(C)CC` (centres undefined) (H-LIIGA-OH; configuration not given here) it was -1.65; in that of `Clc1cc(Cl)c2c(oc3c(Cl)ccc(Cl)c32)c1Cl`, 6.34.
`NC(=O)c1c(O)cccc1O` had a logP of 0.6.
The same measure for `Nc1nc(N)c2c(N)cccc2n1`: 0.3.
In the case of `CC(=O)OC1CCCC2(C)CCC(C(C)(C)O)CC12` (centres undefined) it was 3.42; in that of `c1ccc2c(c1)Cc1ncccc1-2`, 2.59.
In the case of `CNS(=O)(=O)c1nnc(NC(C)=O)s1` it was 0.49; in that of `CN(C)c1cc[n+]([O-])cc1`, -0.9; in that of `COc1ccc(N2CC(N3CCCCC3)=NC2=O)cc1`, 1.5.
`CCOP(=O)(OCC)C(C)(C)[N+]([O-])=Cc1ccc([N+](=O)[O-])cc1` returned a logP of 1.43.
The compound `O=C(c1ccccc1)c1ccnnc1` came in with a lipophilicity (logP) of 1.09.
Regarding `CO[C@H]1C=CO[C@@]2(C)Oc3c(C)c(O)c4c(c3C2=O)C2=NC3(CCN(CC(C)C)CC3)NC2=C(NC(=O)C(C)=CC=C[C@H](C)[C@H](O)[C@@H](C)[C@@H](O)[C@@H](C)[C@H](OC(C)=O)[C@@H]1C)C4=O`, the logP was 4.5.
Consider `CCN(C(C)=O)c1cccc(-c2ccnc3c(C#N)cnn23)c1`, for which the logP worked out at 1.23.
Compound `CCC(C)C(NC(=O)C(N)Cc1ccccc1)C(=O)NC(C(=O)O)C(C)O` (stereo not drawn) (H-Phe-Ile-Thr-OH; configuration not given here) showed a logP of -1.95.
Compound `CCC(C)C(N)C(=O)NC(C)C(=O)NC(C)C(=O)NC(C(=O)O)C(C)CC` (centres undefined) (H-IAAI-OH; configuration not given here) registered a logP of -2.82.
As to `O=[N+]([O-])c1nccn1CC(O)COCF` (centres undefined), the logP is -0.4.
The same measure for `COc1ccc(C2Cc3c(cccc3C(F)(F)F)N(CCN(C)C)C(=O)C2O)cc1` (centres undefined): 4.1.
In turn, `FC(F)(F)c1cccc(CNc2[nH]cnc3ncnc2-3)c1` gave a logP of 3.08.
The same measure for `CC(C)=CCNc1ncnc2c1ncn2[C@@H]1O[C@H](CO)[C@@H](O)[C@H]1O`: 1.3; for `c1ccc(Cn2cccn2)cc1`: 1.78.
In the case of `COc1cc2ncnc(Nc3ccc(F)cc3)c2cc1OC` it was 2.87; in that of `Cc1cccc(C)c1OCC1CN=C(N)O1` (centres undefined), 2.
In the case of `C=CCN(N=O)C(=O)N(CCCCC(NC(C)=O)C(=O)NCc1ccccc1)Cc1ccccc1` (centres undefined) it was 2.7.
On to `CCNc1nc(N)nc(OC)n1`, for which the logP stood at 0.89.
In the case of `O=c1cc(CI)occ1O`, the logP was 0.67.
Turning to `O=C(c1c(O)c2ccc(Cl)cc2[nH]c1=O)C1CC1`, the logP came to 2.35.
In turn, `CCCNC(=O)CCC(=O)NCc1c(O)c(=O)cc(C)n1C` showed a logP of -0.7.
In the case of `CC(C)OC(=O)C1(S(=O)(=O)c2ccc(Cl)cc2)CCCCC1` it was 3.49.
Take `Cc1coc2cc3oc(=O)ccc3c(C)c12`: the logP was 2.79.
In the case of `Cc1cccc(-n2nnnc2N)c1` it was 1.24; in that of `Cc1ccc(CO)c(C=NNC(=O)c2ccncc2)c1O`, 2.16.
The same measure for `CC(C)CNc1ncnc2c1ncn2C1OC(CO)C(O)C1O` (centres undefined): 1.01; for `CN(C)CCOc1cccc(Cl)c1`: 2.82.
The same measure for `CC1(C(Cl)Cl)C2C(Cl)C(Cl)C1(C(Cl)Cl)C(Cl)C2Cl` (centres undefined): 5.52.
`O=C(O)Cc1c(O)cccc1Nc1c(Cl)cccc1Cl` gave a logP of 4.65.
In the case of `CN1CCN(CCn2nc3ccccc3n2)CC1` it was 0.74.
In the case of `CCCCCCCCNC1=NS(=O)N=C1NCCSCc1ccc(CN(C)C)o1` (centres undefined) it was 4.47; in that of `Cc1nc2c3c(c(C(=O)N(C)C)cn2c1Br)CCC(c1ccccc1)O3` (centres undefined), 3.4.
The same measure for `CCCCCCCCCCNCCO`: 3.62; for `CC(C(=O)O)c1ccc(N2CC3CCCCC3C2=O)cc1` (centres undefined): 3.15.
`CCCCC(=O)C(CCCCOc1c(C)cc(C)cc1[N+](=O)[O-])n1cncn1` (centres undefined) had a logP of 3.9.
The same measure for `CCCOc1cccc(-c2c[nH]c(SCCc3c[nH]cn3)n2)c1`: 3.7; for `O=C(Cc1ccccc1)Nc1[nH]cnc2ncnc1-2`: 1.19; for `O=C(Nc1ncc([N+](=O)[O-])s1)c1ccc(Br)cc1`: 3.58.
For `CCCCCCCCCCCCN(C)N=Nc1ccc(C(N)=O)cc1`, the logP worked out at 6.58.
The same measure for `N#Cc1cccc(Cc2ncccn2)c1`: 1.46; for `C1CCC2OC2C1` (centres undefined): 1.26; for `CC(C)CC(NC(=O)C(Cc1c[nH]c2ccccc12)NC(=O)C(N)Cc1c[nH]c2ccccc12)C(=O)O` (stereo not drawn) (H-Trp-Trp-Leu-OH; configuration not given here): 0.36.
The same measure for `Nc1cccc(Cn2cnc3ccccc32)c1`: 1.92.
In the case of `CCOc1ccc(CNc2[nH]cnc3ncnc2-3)cc1` it was 2.6.
`c1ccc(CSSc2ncc[nH]2)cc1` came in with a logP of 3.05.
In the case of `CN(c1nc2ccccc2s1)C1CCN(CC(O)COc2ccc(F)cc2)CC1` (centres undefined) it was 4.61; in that of `CCCOc1ccccc1CNc1[nH]cnc2ncnc1-2`, 3.27.
In the case of `CC12CCC(c3c1ssc3=S)C2(C)C` (centres undefined), the logP is 3.8.
Take `O=c1cc(CSCCO)occ1O`: the logP was -0.69.
The same measure for `c1cc2cc3c(cc2cn1)OCO3`: 1.75.
The compound `ClCC1(C(Cl)Cl)C2C(Cl)CC1(C(Cl)Cl)C(Cl)C2Cl` (centres undefined) yielded a logP of 5.19.
The same measure for `CC(C)NC(=NC#N)NS(=O)(=O)c1cnccc1NC1CCCCCC1`: 2.07; for `CC(C)NC(=NC#N)NS(=O)(=O)c1cnccc1Nc1cccc(C(F)(F)F)c1`: 2.54; for `COc1ccc(C2Cc3c(C(=O)OCc4ccccc4)cccc3N(CCN(C)C)C(=O)C2OC(C)=O)cc1` (centres undefined): 5.3.
`CC(NC(=O)C(N)Cc1c[nH]c2ccccc12)C(=O)NC(C(N)=O)C(C)C` (stereo not drawn) (H-Trp-Ala-Val-NH2; configuration not given here) came in with a logP of 0.4.
Take `COC(=O)C(C)NP(=O)(OCC1C=CC(n2cc(C)c(=O)[nH]c2=O)O1)Oc1cccc(Br)c1` (centres undefined): the logP was determined as 1.64.
In the case of `CC(=O)OCOC(=O)N(C)N=Nc1ccc(Br)cc1`, the logP worked out at 3.64.
In the case of `COC(=O)C=CCn1cc([N+](=O)[O-])nc1C` it was 0.16.
The same measure for `CCC(C)NC(=O)NN` (centres undefined): -0.84.
In the case of `C=C1C=CCC(C)=CCC1` it was 4.17; in that of `CON(C)C(=O)Nc1cccc(C#N)c1`, 1.33; in that of `CNCCC=Cc1cccnc1`, 1.13.
The compound `CCCCCCNc1ncnc2c1ncn2C1OC(CO)C(O)C1O` (centres undefined) had a logP of 2.24.
The compound `NC(=O)Cc1c[nH]c2ccccc12` yielded a logP of 0.75.
`COc1ccc(-c2cn3cc(N)cnc3n2)c(OC)c1` came in with a logP of 1.68.
As to `Nc1nc(N)c2c(F)cccc2n1`, the logP is 1.19.
The same measure for `CN(C)C(C)(C)O`: 0.2.
The same measure for `Cc1nc2ccccc2c(=O)n1CC(=O)NNc1ccccc1`: 1.34; for `O=C1c2ccc(Cl)cc2OCN1CCO[N+](=O)[O-]`: 2.74; for `O=C(O)Cc1ccccc1Nc1cc(Cl)cc(Cl)c1`: 5.07.
In turn, `CC(=O)Nc1ccc(S(=O)(=O)Nc2nc(C)c(C)o2)cc1` yielded a logP of 0.46.
In the case of `CCOC(=O)C(C)c1ccc2cc(OC)ccc2c1` (centres undefined) it was 3.51.
On to `CCCCC(=O)c1ccncc1`, for which the logP amounted to 2.
`CN(C)CCOC(=O)c1ccc(C(C)(C)C)cc1` yielded a logP of 3.94.
The compound `CC(C)CC(NC(=O)C(N)Cc1ccc(O)cc1)C(=O)NC(C(=O)O)C(C)C` (stereo not drawn) (H-Tyr-Leu-Val-OH; configuration not given here) came in with a lipophilicity (logP) of -1.45.
Consider `O=C(NC(Cc1c[nH]c2ccccc12)C(=O)O)OCc1ccccc1` (centres undefined), for which the logP turned out to be 3.2.
`CC(C)CC(Nc1ccc([N+](=O)[O-])cc1[N+](=O)[O-])C(=O)O` (centres undefined) registered a log partition coefficient (logP) of 3.25.
The compound `CC(C)(C)N=O` yielded a logP of 0.91.
For `CC(C)CC(N)C(=O)NC(CC(C)C)C(=O)NC(CC(C)C)C(=O)NC(C(=O)O)C(C)C` (centres undefined) (H-LLLV-OH; configuration not given here), the logP is -0.51.
The same measure for `CCC(C)C(NC(=O)C(NC(=O)C(N)CC(C)C)C(C)CC)C(=O)O` (stereo not drawn) (H-Leu-Ile-Ile-OH; configuration not given here): -1.11.
In the case of `O=C(O)CCCCCON=C(c1cccc(C(F)(F)F)c1)c1cccnn1` it was 3.22.
Consider `CC(=O)NC(CCCN(Cc1ccccc1)C(=O)N(CCCl)N=O)C(=O)NCc1ccccc1` (centres undefined), for which the logP turned out to be 1.92.
Consider `CC(C)=CC1C(C(=O)OCc2cccc(C(=O)c3ccccc3)c2)C1(C)C` (centres undefined), for which the logP was found to be 6.54.
The compound `OC(CCCN1CCC(C(O)(c2ccccc2)c2ccccc2)CC1)c1ccccc1` (centres undefined) yielded a logP of 3.9.
With `CC(CO)NC(=O)Cn1ccnc1[N+](=O)[O-]` (centres undefined), the log partition coefficient (logP) is -1.02.
